Experimental data from publication PMC10439952, “JT002, a small molecule inhibitor of the NLRP3 inflammasome for the treatment of autoinflammatory disorders” (Scientific Reports, 2023).

Assays:
[1] = Pharmacokinetics in male Sprague–Dawley rats after i.v. and p.o. administration; assay type: in vivo
Procedure: (§1) The pharmacokinetics (PK) of JT002 were assessed in male Sprague–Dawley rats and male Beagle dogs after intravenous (i.v.) and oral (p.o.) administration (Table 2). […] In dogs, a maximum drug plasma concentration (Cmax) of 4.0 µg/mL (9 µM) was reached 1 h after a single 1 mg oral dose. Dose-adjusted exposures (dose-adjusted AUC) from oral administration were close to identical between rat and dog (11.8 versus 11.6) (Table 2).

[2] = Lipophilicity comparison; assay type: physicochemical; settings: compared with MCC950
[3] = target: T1, AIM2 inflammasome (Mus musculus, UniProt Q91VJ1); test: IL-1β production in mouse BMDMs after AIM2 activation (LPS + poly(dA:dT)); assay type: cell-based; settings: mBMDMs, concentrations up to 10 µM
T1 construct: host or cells: mouse BMDMs, LPS + transfected poly(dA:dT)
T1 sequence (Q91VJ1 1-354): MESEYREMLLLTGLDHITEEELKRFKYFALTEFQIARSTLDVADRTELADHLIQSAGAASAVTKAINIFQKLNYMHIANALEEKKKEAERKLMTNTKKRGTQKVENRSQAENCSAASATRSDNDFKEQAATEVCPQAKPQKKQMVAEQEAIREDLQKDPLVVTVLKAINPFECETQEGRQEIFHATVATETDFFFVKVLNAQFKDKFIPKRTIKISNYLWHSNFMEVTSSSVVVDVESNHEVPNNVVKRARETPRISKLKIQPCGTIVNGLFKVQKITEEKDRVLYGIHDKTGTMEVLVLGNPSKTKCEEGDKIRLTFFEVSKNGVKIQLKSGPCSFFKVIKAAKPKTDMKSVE
Procedure: Cell viability was determined by addition of an equal volume of CellTiter-Glo® 2.0 reagent (Promega) to the remaining cells/supernatant in each well. Intracellular Caspase-1 activity was measured using the Caspase-Glo® assay (Promega) according to the manufacturer’s instructions. The biochemical capsase-1 assay was conducted at Reaction Biology Corporation (Malvern, USA). Human IL-1β, IL-1α, and TNFα and mouse IL-1β were measured in cell culture supernatants using homogeneous time resolved fluorescence assay kits (HTRF, Cisbio, Codolet, France). Human IL-18 was measured in cell culture supernatants using an ELISA kit (R&D Systems, Minneapolis, MN, USA). Plasma IL-1β concentrations were determined by Quantikine® ELISA (R&D Systems, Minneapolis, MN).
4H). MS: m/z 433.1 (M+H+). […]
flagellin, prepared in Opt iMEM and combined with Lipofectamine 2000. […] After priming Nlrp3 -/- mBMDMs with 100 ng/mL of LPS for 3- 5 h, cells were exposed to 100 ng/mL L18- MDP and incubated overnight.At the end of the incubation period of the assays above, plates were briefly centri fuged and hal f of the cell culture supern atant remo ved and either analysed i mmediately or stored at - 80°C for subs equent cytokine […]

[4] = Pharmacokinetics in male Beagle dogs after i.v. and p.o. administration; assay type: in vivo; settings: plasma, Dog
Procedure: as §1

[5] = Rat, single 5 mg oral dose, sodium salt form
[6] = male, Sprague-Dawley, plasma, iv, Rat, 1 mg/kg
[7] = male, Sprague-Dawley, plasma, po, Rat, 5 mg/kg

- %F (oral bioavailability) ([1]; Rat, p.o., 5 mg/kg, sodium salt form): 73.2%
- maximum plasma concentration [1, 5]: 36 µM
- time of maximum plasma concentration [1, 5]: thirty
- AUC [1, 6]: 16200 ng·h/mL
- Cmax [1, 6]: 10600 ng/mL
- half-life [1, 6]: 2.8 h
- clearance ([1]; male, Sprague-Dawley, plasma, iv, Rat, i.v., 1 mg/kg, read-out: Clpl (plasma clearance)): 1 mL/min/kg
- Vd ([1]; male, Sprague-Dawley, plasma, iv, Rat, i.v., 1 mg/kg, read-out: Vss): 0.2 L/kg
- AUC [1, 7]: 59200 ng·h/mL
- Cmax [1, 7]: 15600 ng/mL
- half-life [1, 7]: 3.4 h
- Tmax ([1]; male, Sprague-Dawley, plasma, po, Rat, 5 mg/kg, median): 0.5 h
- bioavailability ([1]; male, Sprague-Dawley, rat, plasma, po, 5 mg/kg, p.o., 5 mg/kg, sodium salt form, read-out: %F (oral bioavailability)): 73%
- lipophilicity [2]: lower lipophilicity than MCC950
- inhibition of IL-1β production after AIM2 activation [3]: no inhibition of IL-1β production
- Cmax ([4]; single 1 mg oral dose, read-out: maximum drug plasma concentration (Cmax)): 9 µM
- AUC ([4]; iv, 1 mg/kg): 10600 ng·h/mL
- half-life ([4]; iv, 1 mg/kg): 1.1 h
- clearance ([4]; iv, i.v., 1 mg/kg, read-out: Clpl (plasma clearance)): 1.8 mL/min/kg
- Cmax ([4]; iv, i.v., 1 mg/kg, read-out: Cmax): 7000 ng/mL
- Vd ([4]; iv, i.v., 1 mg/kg, read-out: Vss): 0.2 L/kg
- AUC ([4]; po, 1 mg/kg): 11600 ng·h/mL
- half-life ([4]; po, 1 mg/kg): 1.4 h
- Tmax ([4]; po, 1 mg/kg, median): 1 h
- Cmax ([4]; po, p.o., 1 mg/kg, read-out: Cmax): 4000 ng/mL
- bioavailability ([4]; po, p.o., 1 mg/kg, sodium salt form, read-out: %F (oral bioavailability)): 100%
SMILES: CO[C@@H]1COc2c(S(=O)(=O)NC(=O)Nc3c4c(cc5c3CCC5)CCC4)cnn2C1 [JT002]
